Reference: publication PMC7520961, “Safety evaluation of the interchangeable use of robenacoxib in commercially-available tablets and solution for injection in cats” (BMC Veterinary Research, 2020)

Columns and labels:
[1] = Dissolution of robenacoxib tablets with or without gelatin capsule; type: physicochemical; conditions: by 40 minutes; tablets whether or not encapsulated in gelatin capsules; data not shown
[2] = test system: cats; assay: Clinical chemistry (target animal safety study); type: in vivo, cat; conditions: for Total Bilirubin (mean ± SD) / GGT (mean ± SD) / AST (mean ± SD) / Creatine Kinase (mean ± SD) / Creatinine (mean ± SD) / Albumin/Globulin Ratio (mean ± SD) / Globulin (mean ± SD) / Albumin (mean ± SD) / Potassium (mean ± SD) / Total Protein (mean ± SD) / Phosphorus (mean ± SD) / Calcium (mean ± SD) / Triglyceride (mean ± SD) / Urea Nitrogen (mean ± SD) / ALT (mean ± SD) / Alkaline Phosphatase (mean ± SD) / Glucose (mean ± SD) / Cholesterol (mean ± SD) / Chloride (mean ± SD) / Sodium (mean ± SD): post-treatment, average of days 13 and 37; for Total Bilirubin (mean ± SD): reference range 0 - 0.3; for GGT (mean ± SD): reference range 0 – 2; for GGT (mean ± SD) / Albumin/Globulin Ratio (mean ± SD): significant treatment x sex and treatment x time effects (p<0.1); for AST (mean ± SD): reference range 0 – 55; for AST (mean ± SD) / Triglyceride (mean ± SD): significant treatment x sex effect (p<0.1); for Creatine Kinase (mean ± SD): reference range 0 – 1213; for Creatinine (mean ± SD): reference range 0.5 - 1.3; for Albumin/Globulin Ratio (mean ± SD): reference range 0.9 - 1.5; for Globulin (mean ± SD): reference range 2.1 - 3.3; for Albumin (mean ± SD): reference range 2.9 - 3.7; for Potassium (mean ± SD): reference range 4.6 - 7.4, significant treatment x time effect (p<0.1); for Total Protein (mean ± SD): reference range 5.4 - 6.7; for Phosphorus (mean ± SD): reference range 6.2 - 9.7, significant (p<0.1); for Calcium (mean ± SD): reference range 9.6 - 11.5; for Triglyceride (mean ± SD): reference range 12 – 64; for Urea Nitrogen (mean ± SD): reference range 15 – 35; for ALT (mean ± SD): reference range 27 – 103; for Alkaline Phosphatase (mean ± SD): reference range 50 – 186; for Glucose (mean ± SD): reference range 55 - 159; for Cholesterol (mean ± SD): reference range 88 – 148; for Chloride (mean ± SD): reference range 112 – 123; for Sodium (mean ± SD): reference range 146 – 160
Description: The upper lip was everted and a Surgicutt incision device was used to create a small incision (approximately 1 mm in depth and 3.5 mm in length). Blood flow from the incision site was blotted using filter paper below the incision. The elapsed time from the triggering of the device until blood no longer appeared on the filter paper was recorded as the bleed time. […] Blood samples (3.0 mL) were collected from the jugular vein into tubes containing K3EDTA for evaluation of hematology parameters, sodium citrate for evaluation of coagulation parameters, and serum separators with no anticoagulant for the clinical chemistry samples. […] Coagulation variables were determined using a Stago Compact (Diagnostica Stago, Parsippany, NJ, US), clinical chemistry variables were determined using an Olympus AU2700 or AU640e (Olympus Diagnostics, Southall, UK), and urinalysis variables were determined using a […]-500 or Atlas (Siemens, Munich, Germany), Reichert VET 360 (Reichert Technologies, Buffalo, New York, USA), or light microscope. Post-treatment values were analyzed using […], with treatment group, sex, time, and their interactions as fixed model effects and the pre-treatment value measured closest to dosing as a covariate. Repeated measurements in the same animal were modeled using a compound symmetry or heterogeneous compound symmetry correlation structure (for food consumption: autoregressive first-order or heterogeneous autoregressive first-order); the model with the smallest Akaike's Information Criterion was selected for each outcome. If any of the interactions involving treatment was significant (p < 0.1 for the two-factor interactions or p < 0.05 for the three-factor interaction), it was inappropriate to evaluate the main or overall treatment effect independently of the interacting factor and, as such, treatment comparisons were conducted for each level of the interacting factor. If none of the interactions involving treatment were significant, overall treatment differences were assessed.

[3] = test system: cats; assay: Buccal mucosal bleeding time (BMBT); type: in vivo; conditions: one 2X cat
Description: Buccal mucosal bleeding times (BMBT) were measured on all animals on Days − 5 and 36 following ECG examinations while the animals were sedated. The upper lip was everted and a Surgicutt incision device was used to create a small incision (approximately 1 mm in depth and 3.5 mm in length). Blood flow from the incision site was blotted using filter paper below the incision. The elapsed time from the triggering of the device until blood no longer appeared on the filter paper was recorded as the bleed time. Clinical pathology evaluations were conducted on all animals on Days − 13 and − 6 and prior to dosing on Days 13 and 37. Because reference values given by the laboratory were (slightly) different for males and females, they were combined (i.e. lower of the two lower bounds to higher of the two upper bounds) for the tables. […] Hematology variables were determined using an Advia 120 or Advia 2120 (Siemens, Munich, Germany), light microscope, or sediplast column (Polymedco, NY, US). Coagulation variables were determined using a Stago Compact (Diagnostica Stago, Parsippany, NJ, US), clinical chemistry variables were determined using an Olympus AU2700 or AU640e (Olympus Diagnostics, Southall, UK), and urinalysis variables were determined using a Clinitek-500 or Atlas (Siemens, Munich, Germany), Reichert VET 360 (Reichert Technologies, Buffalo, New York, USA), or light microscope.

[4] = test system: cats; conditions: in vivo
Description: Cageside observations were performed twice daily on all animals for morbidity, mortality, injury, and the availability of food and water. Detailed clinical observations were performed by trained technical staff twice per day beginning on Day − 2. Observations were at least six hours apart with the first occurring 1–2 hours after dose administration. Observations included, but were not limited to eyes, mucus membranes, respiratory system, circulatory system, autonomic and central nervous systems, somatomotor activity and behavior pattern. Body weight was measured on Day − 19 and weekly beginning Day − 14. Individual food consumption was measured daily beginning on Day − 7. Injection sites were evaluated for erythema, edema, heat, and pain response (i.e., vocalization upon palpation using a 3-point Likert scale) on each day of subcutaneous dosing prior to and 7 to 8 hours after dosing and once daily for three days following each dose administration. If any injection site was abnormal at the end of the observation period, additional assessments were carried out until the cat returned to normal or until end of the study.

[5] = 1X (oral ≥2.4, SC 2.0 mg/kg/day)
[6] = 2X (oral ≥4.8, SC 4.0 mg/kg/day)
[7] = 3X (oral ≥7.2, SC 6.0 mg/kg/day)

## CCc1ccc(Nc2c(F)c(F)cc(F)c2F)c(CC(=O)O)c1 [robenacoxib]
[1]
  robenacoxib dissolved: approximately 93%
[2]; [5]
  Total Bilirubin (mean ± SD): 0.18 ± 0.04 mg/dL
  GGT (mean ± SD): 1.14 ± 0.43 U/L
  AST (mean ± SD): 22.2 ± 8.6 U/L
  Creatine Kinase (mean ± SD): 1479 ± 1901 U/L
  Creatinine (mean ± SD): 0.86 ± 0.13 mg/dL
  Albumin/Globulin Ratio (mean ± SD): 1.29 ± 0.14
  Globulin (mean ± SD): 2.62 ± 0.23 g/dL
  Albumin (mean ± SD): 3.31 ± 0.21 g/dL
  Potassium (mean ± SD): 5.40 ± 0.24 mEq/L
  Total Protein (mean ± SD): 5.93 ± 0.28 g/dL
  Phosphorus (mean ± SD): 8.86 ± 0.76 mg/dL
  Calcium (mean ± SD): 10.01 ± 0.31 mg/dL
  Triglyceride (mean ± SD): 40.1 ± 27.2 mg/dL
  Urea Nitrogen (mean ± SD): 25.3 ± 2.7 mg/dL
  ALT (mean ± SD): 54.6 ± 9.2 U/L
  Alkaline Phosphatase (mean ± SD): 105.6 ± 40.6 U/L
  Glucose (mean ± SD): 85.1 ± 7.1 mg/dL
  Cholesterol (mean ± SD): 105.0 ± 18.1 mg/dL
  Chloride (mean ± SD): 116.63 ± 1.50 mEq/L
  Sodium (mean ± SD): 150.3 ± 1.3 mEq/L
[2]; [6]
  Total Bilirubin (mean ± SD): 0.19 ± 0.03 mg/dL
  GGT (mean ± SD): 1.33 ± 0.65 U/L
  AST (mean ± SD): 22.0 ± 4.1 U/L
  Creatine Kinase (mean ± SD): 975 ± 903 U/L
  Creatinine (mean ± SD): 0.85 ± 0.12 mg/dL
  Albumin/Globulin Ratio (mean ± SD): 1.36 ± 0.14
  Globulin (mean ± SD): 2.57 ± 0.28 g/dL
  Albumin (mean ± SD): 3.46 ± 0.17 g/dL
  Potassium (mean ± SD): 5.33 ± 0.41 mEq/L
  Total Protein (mean ± SD): 6.03 ± 0.35 g/dL
  Phosphorus (mean ± SD): 8.18 ± 0.83 mg/dL
  Calcium (mean ± SD): 10.16 ± 0.26 mg/dL
  Triglyceride (mean ± SD): 32.4 ± 9.1 mg/dL
  Urea Nitrogen (mean ± SD): 24.8 ± 4.0 mg/dL
  ALT (mean ± SD): 56.6 ± 9.4 U/L
  Alkaline Phosphatase (mean ± SD): 94.5 ± 24.4 U/L
  Glucose (mean ± SD): 84.1 ± 9.0 mg/dL
  Cholesterol (mean ± SD): 103.9 ± 14.2 mg/dL
  Chloride (mean ± SD): 115.88 ± 1.71 mEq/L
  Sodium (mean ± SD): 150.5 ± 1.4 mEq/L
[2]; 2X group, not considered clinically relevant
  phosphorus relative to controls (pairwise comparison, pooled samples over all time points): decrease
[2]; [7]
  Total Bilirubin (mean ± SD): 0.19 ± 0.03 mg/dL
  GGT (mean ± SD): 0.94 ± 0.05 U/L
  AST (mean ± SD): 22.8 ± 6.8 U/L
  Creatine Kinase (mean ± SD): 1763 ± 2175 U/L
  Creatinine (mean ± SD): 0.79 ± 0.12 mg/dL
  Albumin/Globulin Ratio (mean ± SD): 1.32 ± 0.16
  Globulin (mean ± SD): 2.66 ± 0.29 g/dL
  Albumin (mean ± SD): 3.44 ± 0.18 g/dL
  Potassium (mean ± SD): 5.50 ± 0.43 mEq/L
  Total Protein (mean ± SD): 6.10 ± 0.34 g/dL
  Phosphorus (mean ± SD): 8.66 ± 0.78 mg/dL
  Calcium (mean ± SD): 10.17 ± 0.26 mg/dL
  Triglyceride (mean ± SD): 37.7 ± 14.7 mg/dL
  Urea Nitrogen (mean ± SD): 25.2 ± 3.9 mg/dL
  ALT (mean ± SD): 55.3 ± 10.5 U/L
  Alkaline Phosphatase (mean ± SD): 90.0 ± 19.5 U/L
  Glucose (mean ± SD): 83.1 ± 6.2 mg/dL
  Cholesterol (mean ± SD): 112.6 ± 23.7 mg/dL
  Chloride (mean ± SD): 115.81 ± 1.97 mEq/L
  Sodium (mean ± SD): 150.6 ± 1.5 mEq/L
[3]
  increase in BMBT value compared to pre-treatment value: approximately seven-fold
[4]
  Emesis: observed once on Days 36 and 37
  duration of injection site edema post injection: up to 120 hours
  injection site erythema, heat or pain: no signs
  time to resolution of injection site changes: ≤ 72 h
[4]; sc
  occurrence of injection site edema vs control animals: significantly higher
